Measurements from patent US10774064B2 (Cadent Therapeutics, Inc., priority 2016, dated 2020).
Structures can show the parent of a compound that is named as a salt.

biological target: T1, small-conductance Ca2+-activated K+ channels (SK channels, subtype 2) (Homo sapiens, UniProt Q9H2S1); experiment: whole-cell patch-clamp of ionic current through SK2 channels in HEK293 cells (SC100); format: cell-based; conditions: concentration that increases the basal current by 100%; HEK293 cells expressing SK2 channels
T1 construct: expressed in transfected cells; host or cells: HEK293
Outline: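 Whole-cell patch-clamp recording of current in HEK293 cells expressing SK2 channels. SC100 is the compound concentration that increases basal current by 100%.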

| Structure (SMILES) | SC100 |
| --- | --- |
| Cc1cc(C)n(-c2cc(OCc3nnc(C)o3)cc(NC3CCC(F)(F)CC3)n2)n1 [Compound 261, N-(4,4-difluorocyclohexyl)-6-(3,5-dimethyl-1H-pyrazol-1-yl)-4-((5-methyl-1,3,4-oxadiazol-2-yl)methoxy)pyridin-2-amine] | ++ (++ means 200 nM-1000 nM) |
| CCN1CCCCC(Nc2cc(NC3CCC(F)(F)CC3)nc(-n3ccc(C)n3)n2)C1 (stereo not shown) [Compound 158, N4-(4,4-difluorocyclohexyl)-N6-(1-ethylazepan-3-yl)-2-(3-methyl-1H-pyrazol-1-yl)pyrimidine-4,6-diamine] | ++ (++ means 200 nM-1000 nM) |
| Cc1cc(C)n(-c2cc(OCc3cnn(C)n3)cc(NC3CCC(F)(F)CC3)n2)n1 [Compound 251, N-(4,4-difluorocyclohexyl)-6-(3,5-dimethyl-1H-pyrazol-1-yl)-4-((2-methyl-2H-1,2,3-triazol-4-yl)methoxy)pyridin-2-amine] | ++ (++ means 200 nM-1000 nM) |
| Cc1cc(C)n(-c2nc3c(c(NC4CCC(F)(F)CC4)n2)CCN(C(C)C)C3)n1 [Compound 123, N-(4,4-difluorocyclohexyl)-2-(3,5-dimethyl-1H-pyrazol-1-yl)-7-isopropyl-5,6,7,8-tetrahydropyrido[3,4-d]pyrimidin-4-amine] | + (+ means >1 uM) |

Continued, values first:

| SC100 | Structure (SMILES) |
| --- | --- |
| ++ (++ means 200 nM-1000 nM) | Cc1cc(C)n(-c2nc(NC3CCC(F)(F)CC3)cc([C@H](C)O)n2)n1 [Compound 199, (+)1-(6-((4,4-difluorocyclohexyl)amino)-2-(3,5-dimethyl-1H-pyrazol-1-yl)pyrimidin-4-yl)ethan-1-ol] |
| + (+ means >1 uM) | Cc1cc(C)n(-c2nc(NC3CCC(F)(F)CC3)cc(N3C[C@H]4CC3CN4)n2)n1 [Compound 103, 6-((4R)-2,5-diazabicyclo [2.2.1]heptan-2-yl)-N-(4,4-difluorocyclohexyl)-2-(3,5-dimethyl-1H-pyrazol-1-yl)pyrimidin-4-amine hydrochloride salt] |
| ++ (++ means 200 nM-1000 nM) | Cc1cc(C)n(-c2cc(C(F)F)nc(NC3CCC(F)(F)CC3)n2)n1 [Compound 173] |
| + (+ means >1 uM) | Cc1cc(C)n(-c2nc(N[C@H]3CCCC(F)(F)C3)cc([C@H](C)O)n2)n1 [Compound 355, (−)-1-(6-(((S)-3,3-difluorocyclohexyl)amino)-2-(3,5-dimethyl-1H-pyrazol-1-yl)pyrimidin-4-yl)ethan-1-ol] |

same assay, conditions: whole-cell patch-clamp, HEK293 cells expressing SK2 channels; concentration that increases the basal current by 100%

| Structure (SMILES) | SC100 (μM) |
| --- | --- |
| COc1c(NC2CCC(F)(F)CC2)nc(-c2nc(C)cs2)n(CC#N)c1=O [IN11196-065-P1] | + (+ means >1 uM) |
| Cc1csc(-c2cc(COC(N)=O)cc(NC3CCC(F)(F)CC3)n2)n1 [IN11133-061-P1, (2-((4,4-difluorocyclohexyl)amino)-6-(4-methylthiazol-2-yl)pyridin-4-yl)methyl carbamate] | +++ (+++ means <200 nM) |
| CC(F)(F)c1ccn(-c2nc(NC3CCC(F)(F)CC3)cc(N3CCOCC3)n2)n1 [IN11243-050-P2] | ++ (++ means 200 nM-1000 nM) |
| Cc1ccn(-c2cc(CN(C)C)nc(NC3CCC(F)(F)CC3)n2)n1 [NSSy6783, N-(4,4-difluorocyclohexyl)-4-((dimethylamino)methyl)-6-(3-methyl-1H-pyrazol-1-yl)pyrimidin-2-amine] | ++ (++ means 200 nM-1000 nM) |
| Cc1ccn(-c2cc(OC3CCS(=O)(=O)CC3)nc(NC3CCC(F)(F)CC3)n2)n1 [NSSy6913] | ++ (++ means 200 nM-1000 nM) |
| Cc1ccn(-c2cc(COc3ccc(C#N)cn3)cc(NC3CCC(F)(F)CC3)n2)n1 [NSSy6371] | +++ (+++ means <200 nM) |
| FC1(F)CCC(Nc2cc(N3CCOCC3)nc(-n3ccc(Br)n3)n2)CC1 [NSSy7021] | +++ (+++ means <200 nM) |
| Cc1ccn(-c2cc(C3CCN(C)CC3)cc(NC3CCC(F)(F)CC3)n2)n1 [NSSy6888] | +++ (+++ means <200 nM) |
| Cc1ccn(-c2nc(NC3CCC(F)(F)CC3)cc(N(C)C3CCOC3)n2)n1 (stereo not shown) [IN10984-043-P1] | + (+ means >1 uM) |
| Cc1cccc(-c2nc(NC3CCC(F)(F)CC3)cc(OCc3cnco3)n2)n1 [IN11130-031-P2, N-(4,4-difluorocyclohexyl)-2-(6-methylpyridin-2-yl)-6-(oxazol-5-ylmethoxy)pyrimidin-4-amine] | + (+ means >1 uM) |
| COc1c(NC2CCC(F)(F)CC2)nc(-c2nc(C)cs2)nc1C(C)O (stereo not shown) [IN11104-039-P1, 1-(6-((4,4-difluorocyclohexyl)amino)-5-methoxy-2-(4-methylthiazol-2-yl)pyrimidin-4-yl)ethan-1-ol] | + (+ means >1 uM) |
| Cc1ccn(-c2cc(N3CCOC(CO)C3)nc(NC3CCC(F)(F)CC3)n2)n1 (stereo not shown) [NSSy6986, (4-(2-((4,4-difluorocyclohexyl)amino)-6-(3-methyl-1H-pyrazol-1-yl)pyrimidin-4-yl)morpholin-2-yl)methanol] | ++ (++ means 200 nM-1000 nM) |
| Cc1csc(-c2nc(NC3CCC(F)(F)CC3)cc(N3C[C@@H]4C[C@H]3CO4)n2)n1 [NSSy6171] | ++ (++ means 200 nM-1000 nM) |
| Cc1csc(-c2nc(NC3CCCC(C(F)(F)F)C3)cc(C(C)O)n2)n1 (stereo not shown) [IN10880-085-P1] | + (+ means >1 uM) |
| Cc1csc(-c2nc(NC3CCC(F)(F)CC3)cc(N3CCN(C)CC3)n2)n1 [IN10880-014-P1] | ++ (++ means 200 nM-1000 nM) |
| Cc1csc(-c2nc(NC3CCCCC3)cc(N3CCN(C4COC4)CC3)n2)n1 [NSSy6149] | ++ (++ means 200 nM-1000 nM) |
| COc1cc(-n2nc(C)cc2C)nc(NC2CCC(F)(F)CC2)n1 [NSSy6519, N-(4,4-difluorocyclohexyl)-4-(3,5-dimethyl-1H-pyrazol-1-yl)-6-methoxy pyrimidin-2-amine] | ++ (++ means 200 nM-1000 nM) |
| COCc1cc(NC2CCC(F)(F)CC2)nc(-n2ccc(C)n2)c1 [NSSy5860] | ++ (++ means 200 nM-1000 nM) |
| COc1cc(NC2CC3CCC2C3)nc(-c2nc(C)cs2)n1 (stereo not shown) [IN11055-087-P1] | + (+ means >1 uM) |
| COC(=O)N1CC(Oc2cc(N3CC4(CCCCC4)C3)nc(-c3nc(C)cs3)n2)C1 [NSSy6126] | + (+ means >1 uM) |
| Cc1nsc(-c2nc(NC3CCC(F)(F)CC3)cc(N3CCN(C4COC4)CC3)n2)n1 [NSSy6201] | + (+ means >1 uM) |
| Cc1ccn(-c2cc(N3CC(N(C)C)C3)cc(NC3CCC(F)(F)CC3)n2)n1 [NSSy5763] | ++ (++ means 200 nM-1000 nM) |
| Cc1cc(C)n(-c2nc(NC3CCC(F)(F)CC3)cc(C(C)N(C)C)n2)n1 (stereo not shown) [IN10964-046-P1, N-(4,4-difluorocyclohexyl)-2-(3,5-dimethyl-1H-pyrazol-1-yl)-6-(1-(dimethylamino)ethyl)pyrimidin-4-amine] | + (+ means >1 uM) |
| Cc1cc(C)n(-c2nc(N[C@@H]3CCCC[C@H]3F)cc(N3CCOCC3)n2)n1 [IN11146-016-P1] | + (+ means >1 uM) |
| Cc1csc(-c2nc(NC3CCC(F)(F)CC3)cc(N3CCN4C(=O)OCC4C3)n2)n1 (stereo not shown) [NSSy5774] | ++ (++ means 200 nM-1000 nM) |
| Cc1csc(-c2nc(NC3CCC(F)(F)CC3)cc(C(C)n3cccn3)n2)n1 (stereo not shown) [IN11133-002-P1, 6-(1-(1H-pyrazol-1-yl)ethyl)-N-(4,4-difluorocyclohexyl)-2-(4-methylthiazol-2-yl)pyrimidin-4-amine] | + (+ means >1 uM) |

Second part, the compound after the results:

| SC100 (μM) | Structure (SMILES) |
| --- | --- |
| + (+ means >1 uM) | Cc1csc(-c2ncc(C)c(NC3CCC(F)(F)CC3)n2)n1 [IN11130-076-P1, N-(4,4-difluorocyclohexyl)-5-methyl-2-(4-methylthiazol-2-yl)pyrimidin-4-amine] |
| + (+ means >1 uM) | CC(=O)c1cc(NC2CCC(F)(F)CC2)nc(-c2nc(C3CC3)cs2)n1 [IN11147-071-P1, 1-(2-(4-cyclopropylthiazol-2-yl)-6-((4,4-difluorocyclohexyl)amino)pyrimidin-4-yl) ethan-1-one] |
| ++ (++ means 200 nM-1000 nM) | Cc1cc(-n2nc(C)cc2C)nc(NC2CCC(F)(F)CC2)n1 [NSSy6593] |
| + (+ means >1 uM) | Cc1ccn(-c2cc(OCc3nnc(C)o3)cc(NC3CCC(F)(F)CC3)n2)n1 [NSSy5681] |
| + (+ means >1 uM) | COC(=O)N1CC=C(c2cc(NC3CCC(F)(F)CC3)nc(-n3ccc(C)n3)c2)CC1 [IN11130-077-P1, methyl 2′-((4,4-difluorocyclohexyl)amino)-6′-(3-methyl-1H-pyrazol-1-yl)-3,6-dihydro-[4,4′-bipyridine]-1(2H)-carboxylate] |
| + (+ means >1 uM) | Cc1cc(C)n(-c2cc(C)c(NC3CCC(F)(F)CC3)nn2)n1 [IN10966-083-P1, N-(4,4-difluorocyclohexyl)-6-(3,5-dimethyl-1H-pyrazol-1-yl)-4-methylpyridazin-3-amine] |
| ++ (++ means 200 nM-1000 nM) | FC1(F)CCC(Nc2cc(N3CCCOCC3)nc(-n3ccc(C4CC4)n3)n2)CC1 [IN11217-003-P1, 2-(3-cyclopropyl-1H-pyrazol-1-yl)-N-(4,4-difluorocyclohexyl)-6-(1,4-oxazepan-4-yl)pyrimidin-4-amine] |
| ++ (++ means 200 nM-1000 nM) | COc1cc(NC2CCC(F)(F)CC2)nc(-c2nc(C)cs2)c1 [IN11146-013-P1] |
| +++ (+++ means <200 nM) | Cc1csc(-c2nc(NC3CCC(F)(F)CC3)cc(N3CCN(C(C)C)CC3)n2)n1 [IN10864-031-P1] |
| + (+ means >1 uM) | Cc1cc(C)n(-c2cc(NC3CCC(F)(F)CC3)cc(N3CCOCC3)n2)n1 [IN10991-065-P1, N-(4,4-difluorocyclohexyl)-2-(3,5-dimethyl-1H-pyrazol-1-yl)-6-morpholinopyridin-4-amine] |
| + (+ means >1 uM) | COC(=O)N1CC(Oc2cc(NC3CCC(F)(F)CC3)cc(-n3ccc(C)n3)c2)C1 [NSSy5934, methyl 3-(3-((4,4-difluorocyclohexyl)amino)-5-(3-methyl-1H-pyrazol-1-yl)phenoxy)azetidine-1-carboxylate] |
| + (+ means >1 uM) | Cc1cc(-n2ccc(C(F)(F)F)n2)nc(NC2CCC(F)(F)CC2)n1 [NSSy6591] |
